According to patent US20170340742A1, “A METHOD FOR DELIVERING A SUBSTANCE INTO CELLS” (TECHNISCHE UNIVERSITÄT DARMSTADT, priority 2014, published 2017):
No end group written: not given here. Ahx = NCCCCCC(=O)O

Tested on: living cells
Assay: Comparative test of cellular penetration of cell-penetrating compounds with and without mediator compounds at low and high pH
Type: cell-based
Design: key: −: no uptake detectable; +: low efficiency of uptake detectable; ++: moderate efficiency of uptake detectable; +++: strong de efficiency of uptake detectable; ++++: very strong efficiency of uptake detectable
Settings: compound 2 μM, 30 min
Procedure: A comparative test of cellular penetration of different cell-penetrating compounds was performed in the presence and absence of different mediator compounds at low and high pH. The cell-penetrating compounds (2 μM) and the mediator compounds (6 μM) were mixed in Hepes buffers at low pH (6.5) and high pH (8.5).
The cell media (DMEM) was removed and exchanged by these solutions and incubated for 30 min. Then the solutions were removed and the cells were embedded back in cell culture media (DMEM) and imaged. The efficiency of uptake in the different conditions was determined.
The determined efficacy is depicted with increasing efficacy from “−” no uptake detectable, “+” low efficiency of uptake detectable, “++” moderate efficiency of uptake detectable, “+++” strong de efficiency of uptake detectable, “++++” very strong efficiency of uptake detectable.

Measured: Efficiency of uptake

TAMRA-Ahx-LGQQQPFPPQQPY ({TAMRA-Ahx}-LGQQQPFPPQQPY)
−: Mediator 1: Curcumin 6 μM, high pH of 8.5 | Mediator 1: Curcumin 6 μM, low pH of 6.5 | Mediator 2: Levothyroxine 6 μM, high pH of 8.5 | Mediator 2: Levothyroxine 6 μM, low pH of 6.5 | no mediator, high pH of 8.5 | no mediator, low pH of 6.5
